How the values were obtained:
HEK 293 cells = experiment: Primary screen of lipid reagents: plasmid DNA transfection, YFP fluorescence relative to total cell number (Hoechst); type: cell-based; settings: for cell toxicity: Hoechst stained apoptotic nuclei, microscope images; for transfection efficiency: HEK 293 cells, plasmid DNA (YFP), 20 to 24 hours after transfection
Text: Cell line: HEK 293 cells Screen format: 96-well Detection (read-out): YFP fluorescence relative to total cell number (total cell number assessed using the nuclear dye, Hoechst—see FIGS. 1 and 2)
A commercially available liposomal transfection reagent was used as a reference (reference reagent) according to manufacturers' instructions, see FIGS. 1 and 2.
All steps performed in 96 tube/plate format using 8- or 12-channel multi-pipettes. Amounts shown are for duplicate (2×) wells of a 96-well plate.
1. 0.8 μl lipid reagents diluted in 20 μl 50 mmol/l NaOAc buffer, pH 5.0. 2. Diluted lipid reagents from (1) were added to 150 ng DNA (25 ng pH2B-YFP+125 ng pCS-LacZ plasmids) in 20 μl NaOAc buffer, pH 5.0 and mixed with pipette action. 3. After 30 min incubation at RT, added 100 μl freshly resuspended cells (5×10^4 cells/well DMEM culture medium supplemented with 10% fetal calf serum) and mixed with pipette. 4. Duplicate 65 μl aliquots of the cells+lipid/DNA complexes were immediately transferred to separate wells of a 96-well culture plate and placed in 37° C. incubator with 5% CO2. 5. 20 to 24 hours after initial transfection of cells, Hoechst 33258 dye was added to cells at a final concentration of 0.2 μg/ml and cells incubated for a further 30 min at 37° C. Cells were then placed on an inverted microscope and 2 independent sets of images of the cells captured from each well as shown in FIGS. 1 and 2.
For each sample, 3 images were captured: bright field image of cells (FIGS. 1 and 2 upper panels), Hoechst dye stained image of total cell nuclei (FIGS. 1 and 2 middle panels) and YFP images showing cells successfully transfected with plasmid DNA and expressing YFP protein (FIGS. 1 and 2 lower panels). Microscope images of transfected HEK 293 cells, showing both the transfection efficiency and toxicity level of two of our lipid molecules (#30 and #60) compared to a commonly used commercial transfection reagent (reference reagent).

[1] = test system: mouse embryonic fibroblast (MEF) cells; experiment: Transfection of LRP6 siRNA in MEF cells, Western Blot of LRP6 protein; type: cell-based; settings: for siRNA mediated gene silencing compared with the commercial reagent A: LRP6 siRNA, MEF cells cultured for 24 hours, Western Blot; for ability to deliver siRNA molecules to cells: see FIGS. 5 and 6
Protocol: In order to screen for this two different types of cells were used to test the ability of our lipid reagents to deliver siRNA targeting Low density lipoprotein receptor related protein 6 (LRP6). This is a 200 kD single-pass transmembrane receptor for Wnt ligands and activates the Wnt/b-catenin signalling pathway. It is expressed at relatively high levels in MEF cells.
Assay: Transfection of siRNA in mouse embryonic fibroblast (MEF) cells
All steps performed in 0.2 ml PCR tubes and 96 well plate format. Amounts shown are for one well of a 96-well plate.
1. 0.25 μl lipid reagents diluted in 8 μl 50 mmol/l NaOAc buffer, pH 5.0. 2. Diluted lipid reagents from (1) added to 1 pmol (0.2 μl of 5 μmol/1) siRNA molecules in 8 μl NaOAc buffer, pH 5.0 and mixed with pipette action. The siRNA molecules used had either a scrambled sequence not specific for any known gene (Con siRNA), or a sequence specifically targeting the endogenous mRNA from the LRP6 gene (LRP6 siRNA). 3. After 30 min incubation at RT, added 50 μl freshly resuspended cells (2×10^4 cells/well DMEM culture medium supplemented with 10% fetal calf serum) in one well of a 96-well plate and placed in 37° C. incubator with 5% CO2. 4. 24 hours after initial transfection, cells, were lysed in 25 μl detergent buffer (50 mmol/l Tris, 1% Triton X-100, 0.15 mol/l NaCl, pH 7.0, containing protease and phosphatase inhibitors), spun to remove insoluble cell debris and […] clarified lysates added to 10 μl of 4× SDS loading buffer (250 mmol/l Tris HCl, 40% Glycerol, 8% SDS, 0.01% Bromophenol Blue, 5% 2-Mercaptoethanol, pH 6.8). 5. Samples were denatures by heating at 96° C. for 2 min and 12 μl loaded on a 9% SDS-PAGE gels for separation of proteins according to molecular weight. Separated proteins were transferred from the SDS-PAGE gel to nitrocellulose membrane for Western Blot (WB) analysis. 6. WB was performed using an automated BioLane HTI instrument using antibodies against LRP6 and α-tubublin proteins. HRP linked secondary antibodies and chemiluminescence were used to detect the proteins on the membrane.
FIGS. 5 and 6 show the Western Blot (WB) analysis of LRP6 protein from total lysates of MEF (mouse embryonic fibroblast) cells transfected with the indicated siRNA molecules and cultured for 24 hours.

Compound	cell toxicity (HEK 293 cells)	siRNA mediated gene silencing compared with the commercial reagent A [1]	ability to deliver siRNA molecules to cells [1]	transfection efficiency (HEK 293 cells)
CCCCCCCCCCCSCC(CNC(=O)NCCN(C)C)SCCCCCCCCCCC (stereo not shown) [Example 24, 1-(2,3-bis(undecylthio)propyl)-3-(2-(dimethylamino)ethyl)urea]	very low toxicity	quite effective	very efficiently deliver siRNA molecules to cells	–
CCCCCCCCCCCSCC(CNC(=O)NCCCN(CC)CC)SCCCCCCCCCCC (stereo not shown) [Example 30, 1-(2,3-bis(undecylthio)propyl)-3-(3-(diethylamino)propyl)urea]	low cell toxicity	–	–	approximately 90%
CCCCCCCCCCCCSCC(COCC(O)CNCCCN(CC)CC)SCCCCCCCCCCCC (stereo not shown) [Example 60, 13-(dodecylthio)-3-ethyl-11-oxa-15-thia-3,7-diazaheptacosan-9-ol]	low cell toxicity	–	–	approximately 90%
CCCCCCCCCCCSCC(COCC(O)CNCCN(CC)CC)SCCCCCCCCCCC (stereo not shown) [Example 64, 3-ethyl-12-(undecylthio)-10-oxa-14-thia-3,6-diazapentacosan-8-ol]	very low toxicity	quite effective	very efficiently deliver siRNA molecules to cells	–

From US20170204076A1, “SYNTHESIS AND USE OF AMINO LIPIDS” (INCELLA GMBH, priority 2014, published 2017)
